According to ChEMBL document CHEMBL1124556, “Biphenylcarboxamide derivatives as antagonists of platelet-activating factor” (J Med Chem, 1989):

Key:
Type in all cases: functional
Cavia porcellus [1] = assay: 50% inhibitory dose in a guinea pig bronchoconstriction assay of intravenous administration; conditions: Lung, read-out: ID50 (the source's name)
Cavia porcellus [2] = assay: Platelet-activating factor-antagonist activity was assessed in guinea pig bronchoconstriction assay through peroral administration at a dose of 50 mg/kg at 2 hr; conditions: Lung, route oral
Cavia porcellus [3] = assay: Platelet-activating factor-antagonist activity was assessed in guinea pig bronchoconstriction assay through peroral administration at a dose of 50 mg/kg at 6 hr; conditions: Lung, route oral
Cavia porcellus [4] = assay: 50% inhibitory dose in a guinea pig bronchoconstriction assay through peroral administration; conditions: Lung, po, read-out: ID50 (the source's name)
Cavia porcellus [5] = assay: 50% inhibitory dose in a guinea pig bronchoconstriction assay upon intravenous administration; conditions: Lung, read-out: ID50 (the source's name)
Cavia porcellus [6] = assay: 50%inhibitory dose in a guinea pig bronchoconstriction assay through peroral administration; conditions: Lung, po, read-out: ID50 (the source's name)

| SMILES | ED50 (Cavia porcellus [1]) | inhibition in vivo at 50 mg/kg (Cavia porcellus [2]) | inhibition in vivo at 50 mg/kg (Cavia porcellus [3]) | ED50 (Cavia porcellus [4]) | ED50 (Cavia porcellus [5]) | ED50 (Cavia porcellus [6]) |
| --- | --- | --- | --- | --- | --- | --- |
| COc1cccc(-c2ccc(C(=O)N[C@H](C)CCCc3cccnc3)cc2)c1 | 0.45 mg/kg | 44% |  |  |  |  |
| O=C(NCCCCc1cccnc1)c1ccc(-c2ccccc2)c(-c2ccccc2)c1 | 3.2 mg/kg | 33% |  |  |  |  |
| COc1ccc(-c2ccc(C(=O)NCCCCc3cccnc3)cc2Br)cc1OC | 0.4 mg/kg | 74% | 1% | 19 mg/kg |  |  |
| COc1ccc(-c2ccc(C(=O)N[C@H](C)CCCc3cccnc3)cc2Br)cc1OC | 0.4 mg/kg | 97% | 59% | 14 mg/kg |  |  |
| COc1ccc(-c2ccc(C(=O)N[C@H](C)CCCc3cccnc3)cc2)cc1OC | 0.62 mg/kg | 88% | 29% | 30 mg/kg |  |  |
| COc1cccc(-c2ccc(C(=O)NCCCCc3cccnc3)cc2)c1 |  | 55% |  |  | 0.51 mg/kg | 50 mg/kg |
| COc1ccc(-c2ccc(C(=O)NCCCCc3cccnc3)cc2OC)cc1OC | 0.52 mg/kg | 64% | 13% |  |  |  |
| CCCCc1cc(C(=O)N[C@H](C)CCCc2cccnc2)ccc1-c1ccc(OC)c(OC)c1 | 0.8 mg/kg | 91% | 55% | 25 mg/kg |  |  |
| COc1ccc(-c2ccc(C(=O)N[C@H](C)CCCc3cccnc3)cc2[N+](=O)[O-])cc1OC | 0.19 mg/kg | 89% | 36% | 22 mg/kg |  |  |
| COc1ccc(-c2ccc(C(=O)NCCCCc3cccnc3)cc2[N+](=O)[O-])cc1OC | 0.76 mg/kg | 62% | 4% | 39 mg/kg |  |  |
| C=CCc1cc(C(=O)N[C@H](C)CCCc2cccnc2)ccc1-c1ccc(OC)c(OC)c1 | 0.33 mg/kg | 93% | 26% | 24 mg/kg |  |  |
| COc1ccc(-c2ccc(C(S)=N[C@H](C)CCCc3cccnc3)cc2)cc1OC | 0.31 mg/kg | 37% |  |  |  |  |
| CCc1cc(C(=O)N[C@H](C)CCCc2cccnc2)ccc1-c1ccc(OC)c(OC)c1 | 0.34 mg/kg | 89% | 23% | 24 mg/kg |  |  |
